Assay results reported in PubChem BioAssay (NCI).
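Growth conditions: 96-well plates. Treatment: test compound, 48 hours, 5 concentrations. Analysis: linear interpolation between bracketing concentrations; unreached endpoints set to highest concentration. TGI denotes the concentration required for complete inhibition of growth.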

How the values were obtained:
Assay in all cases: inhibition of tumour cell growth, NCI panel, 48 h
[1] = tested on: SN12C renal
[2] = tested on: U251 CNS
[3] = tested on: MDA-MB-231 breast
[4] = tested on: A549 NSCLC
[5] = tested on: SK-MEL-5 melanoma
[6] = tested on: NCI-H226 lung
[7] = tested on: OVCAR-5 ovarian
[8] = tested on: HOP-92 NSCLC
[9] = tested on: HCT-116 colon
[10] = tested on: HCT-15 colon
[11] = tested on: SNB-19 CNS
[12] = tested on: NCI/ADR-RES ovarian
[13] = tested on: T-47D breast
[14] = tested on: M14 melanoma
[15] = tested on: OVCAR-4 ovarian
[16] = tested on: MDA-N

Compound	TGI [1]	TGI [2]	TGI [3]	TGI [4]	TGI [5]	TGI [6]	TGI [7]	TGI [8]	TGI [9]	TGI [10]	TGI [11]	TGI [12]	TGI [13]	TGI [14]	TGI [15]	TGI [16]
COc1cc(-c2c3c(cc4c2OCO4)[C@@H](Nc2ccc(-c4ccc(-c5ccc(N[C@@H]6c7cc8c(cc7C(c7cc(OC)c(O)c(OC)c7)[C@H]7C(=O)OC[C@H]67)OCO8)cc5)cc4)cc2)[C@H]2COC(=O)[C@@H]2C3)cc(OC)c1O (stereo partly specified)	24.4 µM	10.1 µM	6 µM	12.6 µM	7.58 µM	6.31 µM	17 µM	29.4 µM	3.19 µM	4.79 µM	12.5 µM	5.92 µM	65.2 µM	4.11 µM	–	–
CC(=O)OC1[C@H](OC(C)=O)C2=C(C)[C@@H](OC(C)=O)C[C@@]2(C(C)(C)O)[C@@H](OC(C)=O)[C@H]2[C@@]1(C)[C@@H](OC(C)=O)CC(OC(C)=O)[C@]21CO1 (stereo partly specified)	> 100 µM	> 100 µM	–	> 100 µM	> 100 µM	> 100 µM	> 100 µM	–	> 100 µM	> 100 µM	> 100 µM	–	> 100 µM	> 100 µM	> 100 µM	> 100 µM
CNc1ncnc2c1nc(NC1CCCC1)n2C1OC(CO)C(O)C1O (stereo unspecified)	> 100 µM	> 100 µM	> 100 µM	> 100 µM	> 100 µM	–	> 100 µM	> 100 µM	> 100 µM	> 100 µM	> 100 µM	> 100 µM	> 100 µM	> 100 µM	> 100 µM	> 100 µM
C(=Nc1ccc(-c2nc3ccccc3s2)cc1)c1ccc[nH]1	44.8 µM	27.7 µM	–	> 100 µM	30.7 µM	35.6 µM	51.4 µM	40.1 µM	29.9 µM	38.7 µM	> 100 µM	44.6 µM	47.3 µM	34.2 µM	89.7 µM	33.6 µM
CCn1c(CCl)nc2c1C(=O)c1ccccc1C2=O	2.97 µM	3.12 µM	–	> 100 µM	2.84 µM	0.473 µM	3.25 µM	3.75 µM	4.32 µM	3.19 µM	3.59 µM	6.5 µM	4.21 µM	3.22 µM	3.08 µM	3.85 µM
COc1cc2c(/C=C3/C(=O)Nc4ccc(Cl)cc43)c(Cl)[nH]c2cc1C	2.67 µM	4.62 µM	4.62 µM	16.2 µM	10.4 µM	13.3 µM	17.1 µM	24.2 µM	10.7 µM	4.7 µM	12.7 µM	6.44 µM	26.9 µM	13.7 µM	11.4 µM	–
CN(CCNC(=O)c1c[nH]c2c1Cc1ccccc1-2)CCNC(=O)c1c[nH]c2c1Cc1ccccc1-2	> 100 µM	34.7 µM	80.6 µM	> 100 µM	71.4 µM	71.9 µM	> 100 µM	> 100 µM	> 100 µM	> 100 µM	> 100 µM	> 100 µM	–	84.6 µM	> 100 µM	33.9 µM
O=C1CN(c2cccc(Cl)c2)C(=O)CN1NCNN1CC(=O)N(c2cccc(Cl)c2)CC1=O	> 100 µM	> 100 µM	–	> 100 µM	> 100 µM	–	> 100 µM	> 100 µM	> 100 µM	> 100 µM	> 100 µM	–	–	> 100 µM	> 100 µM	> 100 µM
CCc1c(-c2ccc(OC)cc2)oc(OC)c(C)c1=O	> 100 µM	> 100 µM	> 100 µM	> 100 µM	> 100 µM	–	> 100 µM	> 100 µM	> 100 µM	> 100 µM	> 100 µM	> 100 µM	> 100 µM	> 100 µM	> 100 µM	–
C[C@]12CC(c3ccccc3O1)C(C(=O)Nc1nc(C34CC5CC(CC(C5)C3)C4)cs1)C(=O)N2 (stereo partly specified)	> 100 µM	> 100 µM	> 100 µM	> 100 µM	> 100 µM	> 100 µM	> 100 µM	> 100 µM	> 100 µM	> 100 µM	> 100 µM	> 100 µM	> 100 µM	> 100 µM	> 100 µM	–
Cc1ccc2nc(-c3ccc(C(C)(C)C)cc3)oc(=O)c2c1	> 100 µM	32.5 µM	54.2 µM	> 100 µM	27.6 µM	–	89.5 µM	63.2 µM	51.9 µM	54 µM	74.2 µM	54.2 µM	83.4 µM	74 µM	90.3 µM	67.5 µM
C[C@H](CCC1SC1(C)C)C1CCC2(C)C3=C(CC[C@]12C)[C@@]1(C)CC[C@H](O)C(C)(C)C1CC3 (stereo partly specified)	> 100 µM	–	–	> 100 µM	> 100 µM	> 100 µM	> 100 µM	> 100 µM	> 100 µM	> 100 µM	> 100 µM	–	–	> 100 µM	> 100 µM	–
CCn1c2ccccc2c2c(-c3ccccc3)cc3c(c21)C(=O)N(c1ccccc1)C3=O	> 100 µM	> 100 µM	–	> 100 µM	> 100 µM	> 100 µM	> 100 µM	90.5 µM	> 100 µM	> 100 µM	> 100 µM	–	–	> 100 µM	> 100 µM	–
C=C(Cl)C(Cl)(CCl)CCC(Br)C(C)(C)Br (stereo unspecified)	> 10 µM	> 10 µM	> 10 µM	> 10 µM	> 10 µM	> 10 µM	> 10 µM	> 10 µM	> 10 µM	> 10 µM	> 10 µM	–	> 10 µM	> 10 µM	> 10 µM	> 10 µM
O=C(Cn1c(C(=O)c2ccccc2)nc2ccccc21)c1ccccc1	> 100 µM	> 100 µM	> 100 µM	> 100 µM	> 100 µM	> 100 µM	> 100 µM	> 100 µM	> 100 µM	> 100 µM	> 100 µM	> 100 µM	> 100 µM	> 100 µM	> 100 µM	–
